# Results published in paper PMC8245786, “Comparative Studies on Multi-Component Pharmacokinetics of Polygonum multiflorum Thunb Extract After Oral Administration in Different Rat Models” (Frontiers in Pharmacology, 2021).
# Like-named read-outs stand apart in the source and are kept apart here.
# What was measured:
# [1] = Pharmacokinetics of AE-PM components and their phase II metabolites in rat plasma after single oral administration (UHPLC-MS/MS, with and without sulfatase hydrolysis); conditions: for t1/2z / AUC(0-inf) / CL/F / Cmax / MRT inf / Tmax / Vd/F / half-life / Conversion into phase II metabolites: plasma; for CL/F: CLz/F; for MRT inf: MRT (0-∞); for Vd/F: Vz/F; for half-life: t1/2z; for Conversion into phase II metabolites: rats
# Method: (§1) To explore the pharmacokinetic properties of PM following intragastric administration in rats, a rapid and sensitive method involving the use of UHPLC-MS/MS (Agilent 6460 series, Agilent Technologies, Santa Clara, CA, United States) was developed and validated for the simultaneous quantification of nine active components in rat plasma. The quantification was conducted in ESI negative ionization mode, and mass spectrometry conditions were set up as follows: capillary voltage of 3500 V; gas flow at 12 L/min; nebulizer of 40 psi; the gas temperature of 350°C; and delta EMV (−) of 400. A 10 µl extraction sample was injected into the column (Agilent SB-C18 column, 2.1 mm × 50 mm, 1.8 mm) and eluted at 0.4 ml/min with a gradient elution of water (with 0.1% v/v formic acid) (A) and acetonitrile (B) (0–1.5 min, 20–30% B; 1.5–3.5 min, 30–50% B; 3.five to four min, 50–55%B; 4–6.5 min, 55–85% B; 6.5–6.6 min, 85–20% B and re-equilibration for 3 min).
# (§2) A 50 µl aliquot of blood plasma sample was placed in a centrifuge tube with 50 µl of puerarin (internal standard, IS) solution (1,000 ng/ml), followed by 150 µl methanol, which was mixed for 5 min. Then, the mixture was centrifuged for 10 min at 15,000 rpm (4°C), the supernatant was transferred to a clean centrifuge tube and dried with nitrogen gas at room temperature. The residue was resuspended in 100 µl of methanol, then centrifuged at 15,000 rpm (4°C, 10 min), and 10 µl of the supernatant was analyzed by UHPLC-MS/MS.
# (§3) Additional plasma samples (50 µl) were enzymatically hydrolyzed with 50 µl of enzyme solution (65.86 mg of sulfatase, dissolved in 2 ml of sodium acetate buffer, pH 5.0) for phase II metabolite quantification, in accordance with our previous study ([Ding et al., 2012]; [Yi et al., 2018]). After being vortex mixed for 5 min, the mixture was incubated at 37°C for 30 min and returned to room temperature. Subsequently, the samples were processed as described above.
# (§4) The remaining 21 rats of the three groups were treated with a single oral dose of AE-PM (50.4 g PM/kg). […] Blood was collected in heparinized tubes at 5, 15, 30, 45, 60, 120, 240, 360, 480, 720, 1,440, 2,880, and 4,320 min after administration. The blood samples were centrifuged at 5,000 rpm (4°C) for 7 min, and the supernatant plasma was harvested.
# (§5) All data were presented as mean ± standard deviation (SD). A one-way analysis of variance (ANOVA) was used to compare the data between three groups. The differences were considered to be statistically significant when p < 0.05 and highly significant when the p-value was <0.01 or p < 0.001. Spearman rank correlation coefficient, calculated by bivariate correlation analysis was used to evaluate the correlation between AUC values and expression levels of metabolic enzyme and transporters. All statistical analyses were performed with the SPSS Statistics system (SPSS vision 21.0). Pharmacokinetic data analyses were performed using DAS 2.1.1 software (Mathematical Pharmacology Professional Committee of China, Shanghai, China).
# [2] = rat, in vivo, po
# Method: as §1, §2, §3, §4, §5
# in vivo = conditions: rat, po, 50 g/kg; for MRT inf: MRT (0-∞); for MRT inf / Tmax: oral AE-PM 50 g/kg, plasma, n = 6
# Method: as §1, §2, §3, §4, §5
# [3] = CCl4 group rats, oral AE-PM 50 g/kg, n = 6
# [4] = rat, po, 50 g/kg, ANIT group rats, oral AE-PM 50 g/kg, n = 6
# [5] = rat, po, 50 g/kg, CCl4 group rats, oral AE-PM 50 g/kg, n = 6
# [6] = rat, po, 50 g/kg, Normal group rats, oral AE-PM 50 g/kg, n = 6
# [7] = rat, po, 50 g/kg, Tmax, ANIT group rats, oral AE-PM 50 g/kg, n = 6
# [8] = rat, po, 50 g/kg, Tmax, CCl4 group rats, oral AE-PM 50 g/kg, n = 6
# [9] = rat, po, 50 g/kg, Tmax, Normal group rats, oral AE-PM 50 g/kg, n = 6
# [10] = rat, po, 50.4 g PM/kg, Tmax, different groups (normal, ANIT, CCl4), oral AE-PM
Structure (SMILES),"AUC(0-inf) [1, 4]","AUC(0-inf) [1, 5]","AUC(0-inf) [1, 6]","CL/F [1, 4]","CL/F [1, 5]","CL/F [1, 6]","Cmax [1, 4]","Cmax [1, 5]","Cmax [1, 6]","MRT inf [1, 4]","MRT inf [1, 5]","MRT inf [1, 6]","Tmax [1, 7]","Tmax [1, 8]","Tmax [1, 9]","Vd/F [1, 4]","Vd/F [1, 5]","Vd/F [1, 6]","half-life [1, 4]","half-life [1, 6]",further results
"O=C1c2cccc(O)c2C(=O)c2c(O)cc(CO)cc21 [Aloe-emodin, aloe-emodin]",41700 ng·h/mL,6620 ng·h/mL,3560 ng·h/mL,7.98 mL/min/kg,50.4 mL/min/kg,93.6 mL/min/kg,1570 ng/mL,2600 ng/mL,1270 ng/mL,198 ± 3.17 h,6.47 ± 0.422 h,14 ± 1.42 h,0.25 ± 0.032 h,0.25 ± 0.052 h,0.167 ± 0.051 h,96.7 ± 8.35 L/kg,15 ± 1.2 L/kg,28.7 ± 1.55 L/kg,140 ± 8.29 h,3.54 ± 0.185 h,"t1/2z [1, 3]: 3.448 ± 0.177 h; Tmax [1, 10]: < 0.5 h"
"Oc1cc(O)c2c(c1)O[C@H](c1ccc(O)c(O)c1)[C@@H](O)C2 [Catechin, catechin]",11600 ng·h/mL,1500 ng·h/mL,12600 ng·h/mL,28.8 mL/min/kg,222 mL/min/kg,26.4 mL/min/kg,84.5 ± 8.85 ng/mL,453 ± 8.94 ng/mL,251 ± 11.8 ng/mL,253 ± 3.75 h,11.2 ± 1.23 h,146 ± 11.3 h,1 ± 0.742 h,0.5 ± 0.0408 h,0.25 ± 0.0234 h,442 ± 16.9 L/kg,72.2 ± 12.6 L/kg,237 ± 18.3 L/kg,177.3 ± 1.09 h,104 ± 14.9 h,"half-life [1, 5]: 3.76 ± 0.816 h; Conversion into phase II metabolites ([1]; oral AE-PM): partially converted"
"Cc1cc(O[C@@H]2O[C@H](CO)[C@@H](O)[C@H](O)[C@H]2O)c2c(c1)C(=O)c1cc(O)cc(O)c1C2=O [E-glu, emodin-8-O-β-D-glucoside]",1720 ± 170 ng·h/mL,14200 ng·h/mL,1880 ± 538 ng·h/mL,193 mL/min/kg,23.5 mL/min/kg,177 mL/min/kg,633 ± 50 ng/mL,5920 ng/mL,821 ± 85 ng/mL,2.81 ± 0.872 h,2.44 ± 1.17 h,3.88 ± 1.52 h,1 ± 0.248 h,1 ± 0.289 h,0.25 ± 0.0301 h,78.3 ± 4.4 L/kg,8.13 ± 1.75 L/kg,60.2 ± 9.45 L/kg,4.68 ± 1.1 h,3.92 ± 0.219 h,"Decrease of AUC (0-∞) compared with the normal group ([1]; ANIT model rats, oral AE-PM): 8.25%; Decrease of Cmax compared with the normal group ([1]; ANIT model rats, oral AE-PM): 22.98%; Increase of AUC (0-∞) compared with the normal group ([1]; CCl4 model rats, oral AE-PM): 655.90%; Increase of Cmax compared with the normal group ([1]; CCl4 model rats, oral AE-PM): 620.15%; half-life [1, 5]: 4 ± 1.4 h"
"Cc1cc(O)c2c(c1)C(=O)c1cc(O)cc(O)c1C2=O [Emodin, emodin]",1500 ng·h/mL,5970 ng·h/mL,3400 ng·h/mL,223 mL/min/kg,55.9 mL/min/kg,98.1 mL/min/kg,607 ± 29.9 ng/mL,6430 ng/mL,4100 ng/mL,22.8 ± 5.28 h,1.23 ± 0.681 h,6.09 ± 1.83 h,,,0.167 ± 0.059 h,75.5 ± 8.86 L/kg,68.1 ± 6.03 L/kg,31.3 ± 3.25 L/kg,3.91 ± 0.821 h,,"Decrease of AUC (0-∞) compared with the normal group [2]: 55.98%; Decrease of Cmax compared with the normal group [2]: 85.18%; Increase of AUC (0-∞) compared with the normal group [2]: 75.69%; Increase of Cmax compared with the normal group [2]: 57.02%; Tmax [1, 3]: 0.25 ± 0.0659 h; t1/2z [1, 3]: 3.654 ± 0.267 h; t1/2z ([1]; Normal group rats, oral AE-PM 50 g/kg, n = 6): 3.681 ± 1.075 h; Tmax [1, 10]: < 0.5 h; Conversion into phase II metabolites ([1]; oral AE-PM): partially converted"
"O=C(O)c1cc(O)c(O)c(O)c1 [Gallic acid, gallic acid]",,,,,,,,,,,,,,,,,,,,,MRT inf (in vivo; ANIT group rats): 55.7 ± 4.22 h; MRT inf (in vivo; CCl4 group rats): 3.06 ± 0.12 h; MRT inf (in vivo; Normal group rats): 12.8 ± 1.02 h; Tmax (in vivo; ANIT group rats): 0.75 ± 0.0231 h; Tmax (in vivo; CCl4 group rats): 0.25 ± 0.0641 h; Tmax (in vivo; Normal group rats): 0.25 ± 0.0728 h; Vd/F (in vivo; Vz/F): 205 ± 2.2 L/kg
"COc1cc(O)c2c(c1)C(=O)c1cc(C)cc(O[C@@H]3O[C@H](CO)[C@@H](O)[C@H](O)[C@H]3O)c1C2=O [P-glu, physcion-8-O-β-D-glucoside]",7050 ng·h/mL,1450 ng·h/mL,2270 ng·h/mL,47.3 mL/min/kg,230 mL/min/kg,147 mL/min/kg,223 ± 13.2 ng/mL,211 ± 3.04 ng/mL,148 ± 8.95 ng/mL,18.8 ± 3.36 h,7.48 ± 1.42 h,15.9 ± 2.36 h,1 ± 0.232 h,0.25 ± 0.0661 h,0.75 ± 0.049 h,13.2 ± 1.86 L/kg,81.3 ± 5.01 L/kg,143 ± 11.1 L/kg,3.22 ± 0.473 h,11.3 ± 1.85 h,"half-life [1, 5]: 4.08 ± 0.453 h"
"COc1cc(O)c2c(c1)C(=O)c1cc(C)cc(O)c1C2=O [Physcion, physcion]",14000 ng·h/mL,36000 ng·h/mL,27800 ng·h/mL,23.9 mL/min/kg,9.27 mL/min/kg,12 mL/min/kg,1510 ng/mL,5840 ng/mL,2140 ng/mL,37.6 ± 2.27 h,10 ± 1.14 h,26.7 ± 1.52 h,0.75 ± 0.0238 h,1 ± 0.0675 h,0.5 ± 0.094 h,59.8 ± 3.41 L/kg,7.05 ± 1.11 L/kg,17.6 ± 2.41 L/kg,28.9 ± 1.5 h,17 ± 1.87 h,"Decrease of AUC (0-∞) compared with the normal group ([1]; ANIT model rats, oral AE-PM): 49.77%; Decrease of Cmax compared with the normal group ([1]; ANIT model rats, oral AE-PM): 29.48%; Increase of AUC (0-∞) compared with the normal group ([1]; CCl4 model rats, oral AE-PM): 29.24%; Increase of Cmax compared with the normal group ([1]; CCl4 model rats, oral AE-PM): 173.72%; Levels of glucuronidation and sulfation conjugates in plasma ([1]; oral AE-PM, sulfatase hydrolysis): too low to allow pharmacokinetic analysis; half-life [1, 5]: 8.78 ± 1.6 h"
"OC[C@H]1O[C@@H](Oc2c(O)cc(O)cc2/C=C/c2ccc(O)cc2)[C@H](O)[C@@H](O)[C@@H]1O [TSG, 2,3,5,4'-tetrahydroxystilbene-2-O-β-D-glucoside]",341000 ng·h/mL,116000 ng·h/mL,12900 ng·h/mL,0.983 mL/min/kg,2.87 mL/min/kg,25.9 mL/min/kg,99300 ng/mL,50600 ng/mL,15000 ng/mL,6.03 ± 1.93 h,3.4 ± 1.04 h,4.54 ± 1.23 h,0.5 ± 0.0278 h,0.75 ± 0.136 h,0.25 ± 0.0293 h,0.221 ± 0.0206 L/kg,0.698 ± 0.073 L/kg,4.37 ± 0.711 L/kg,2.61 ± 0.612 h,1.95 ± 0.806 h,"Increase of AUC (0-∞) compared with the normal group ([1]; ANIT model rats, oral AE-PM): 2,548.17%; Increase of Cmax compared with the normal group ([1]; ANIT model rats, oral AE-PM): 560.12%; Increase of AUC (0-∞) compared with the normal group ([1]; CCl4 model rats, oral AE-PM): 802.14%; Increase of Cmax compared with the normal group ([1]; CCl4 model rats, oral AE-PM): 236.59%; half-life [1, 5]: 2.81 ± 0.878 h; Conversion into phase II metabolites ([1]; oral AE-PM): partially converted"
